{
  "source": "BigSolDB 2.1",
  "details": "in ethanol",
  "data": [
    {"molecule": "COc1cc(OC)cc(C(=O)O)c1", "values": [
      {"measurement": "solubility (mole fraction)", "setting": "298.15 K", "result": 0.00493},
      {"measurement": "solubility (mole fraction)", "setting": "303.15 K", "result": 0.00607},
      {"measurement": "solubility (mole fraction)", "setting": "308.15 K", "result": 0.00746},
      {"measurement": "solubility (mole fraction)", "setting": "313.15 K", "result": 0.00934},
      {"measurement": "solubility (mole fraction)", "setting": "318.15 K", "result": 0.0116}
    ]},
    {"molecule": "O=C(O)c1ccc(Cl)cc1Cl", "values": [
      {"measurement": "solubility (mole fraction)", "setting": "298.15 K", "result": 0.0581},
      {"measurement": "solubility (mole fraction)", "setting": "303.15 K", "result": 0.0693},
      {"measurement": "solubility (mole fraction)", "setting": "308.15 K", "result": 0.0817},
      {"measurement": "solubility (mole fraction)", "setting": "313.15 K", "result": 0.0953},
      {"measurement": "solubility (mole fraction)", "setting": "318.15 K", "result": 0.118}
    ]},
    {"molecule": "N#Cc1ccc(C(=O)O)cc1", "values": [
      {"measurement": "solubility (mole fraction)", "setting": "298.15 K", "result": 0.0214},
      {"measurement": "solubility (mole fraction)", "setting": "303.15 K", "result": 0.0266},
      {"measurement": "solubility (mole fraction)", "setting": "308.15 K", "result": 0.0331},
      {"measurement": "solubility (mole fraction)", "setting": "313.15 K", "result": 0.0353},
      {"measurement": "solubility (mole fraction)", "setting": "318.15 K", "result": 0.044}
    ]},
    {"molecule": "CC(=O)Oc1ccc(C(=O)O)cc1", "values": [
      {"measurement": "solubility (mole fraction)", "setting": "298.15 K", "result": 0.0249},
      {"measurement": "solubility (mole fraction)", "setting": "303.15 K", "result": 0.0302},
      {"measurement": "solubility (mole fraction)", "setting": "308.15 K", "result": 0.0358},
      {"measurement": "solubility (mole fraction)", "setting": "313.15 K", "result": 0.0432},
      {"measurement": "solubility (mole fraction)", "setting": "318.15 K", "result": 0.0522}
    ]},
    {"molecule": "Nc1cc(N)cc(C(=O)O)c1", "values": [
      {"measurement": "solubility (mole fraction)", "setting": "298.15 K", "result": 0.00334},
      {"measurement": "solubility (mole fraction)", "setting": "303.15 K", "result": 0.00342},
      {"measurement": "solubility (mole fraction)", "setting": "308.15 K", "result": 0.004},
      {"measurement": "solubility (mole fraction)", "setting": "313.15 K", "result": 0.00441},
      {"measurement": "solubility (mole fraction)", "setting": "318.15 K", "result": 0.00519}
    ]}
  ]
}
